SMILES strings stand for the structures.

One assay deals with T1, human Fatty Acid Synthase (Homo sapiens, UniProt P49327).
T1 construct: made in house
T1 sequence (P49327 whole entry): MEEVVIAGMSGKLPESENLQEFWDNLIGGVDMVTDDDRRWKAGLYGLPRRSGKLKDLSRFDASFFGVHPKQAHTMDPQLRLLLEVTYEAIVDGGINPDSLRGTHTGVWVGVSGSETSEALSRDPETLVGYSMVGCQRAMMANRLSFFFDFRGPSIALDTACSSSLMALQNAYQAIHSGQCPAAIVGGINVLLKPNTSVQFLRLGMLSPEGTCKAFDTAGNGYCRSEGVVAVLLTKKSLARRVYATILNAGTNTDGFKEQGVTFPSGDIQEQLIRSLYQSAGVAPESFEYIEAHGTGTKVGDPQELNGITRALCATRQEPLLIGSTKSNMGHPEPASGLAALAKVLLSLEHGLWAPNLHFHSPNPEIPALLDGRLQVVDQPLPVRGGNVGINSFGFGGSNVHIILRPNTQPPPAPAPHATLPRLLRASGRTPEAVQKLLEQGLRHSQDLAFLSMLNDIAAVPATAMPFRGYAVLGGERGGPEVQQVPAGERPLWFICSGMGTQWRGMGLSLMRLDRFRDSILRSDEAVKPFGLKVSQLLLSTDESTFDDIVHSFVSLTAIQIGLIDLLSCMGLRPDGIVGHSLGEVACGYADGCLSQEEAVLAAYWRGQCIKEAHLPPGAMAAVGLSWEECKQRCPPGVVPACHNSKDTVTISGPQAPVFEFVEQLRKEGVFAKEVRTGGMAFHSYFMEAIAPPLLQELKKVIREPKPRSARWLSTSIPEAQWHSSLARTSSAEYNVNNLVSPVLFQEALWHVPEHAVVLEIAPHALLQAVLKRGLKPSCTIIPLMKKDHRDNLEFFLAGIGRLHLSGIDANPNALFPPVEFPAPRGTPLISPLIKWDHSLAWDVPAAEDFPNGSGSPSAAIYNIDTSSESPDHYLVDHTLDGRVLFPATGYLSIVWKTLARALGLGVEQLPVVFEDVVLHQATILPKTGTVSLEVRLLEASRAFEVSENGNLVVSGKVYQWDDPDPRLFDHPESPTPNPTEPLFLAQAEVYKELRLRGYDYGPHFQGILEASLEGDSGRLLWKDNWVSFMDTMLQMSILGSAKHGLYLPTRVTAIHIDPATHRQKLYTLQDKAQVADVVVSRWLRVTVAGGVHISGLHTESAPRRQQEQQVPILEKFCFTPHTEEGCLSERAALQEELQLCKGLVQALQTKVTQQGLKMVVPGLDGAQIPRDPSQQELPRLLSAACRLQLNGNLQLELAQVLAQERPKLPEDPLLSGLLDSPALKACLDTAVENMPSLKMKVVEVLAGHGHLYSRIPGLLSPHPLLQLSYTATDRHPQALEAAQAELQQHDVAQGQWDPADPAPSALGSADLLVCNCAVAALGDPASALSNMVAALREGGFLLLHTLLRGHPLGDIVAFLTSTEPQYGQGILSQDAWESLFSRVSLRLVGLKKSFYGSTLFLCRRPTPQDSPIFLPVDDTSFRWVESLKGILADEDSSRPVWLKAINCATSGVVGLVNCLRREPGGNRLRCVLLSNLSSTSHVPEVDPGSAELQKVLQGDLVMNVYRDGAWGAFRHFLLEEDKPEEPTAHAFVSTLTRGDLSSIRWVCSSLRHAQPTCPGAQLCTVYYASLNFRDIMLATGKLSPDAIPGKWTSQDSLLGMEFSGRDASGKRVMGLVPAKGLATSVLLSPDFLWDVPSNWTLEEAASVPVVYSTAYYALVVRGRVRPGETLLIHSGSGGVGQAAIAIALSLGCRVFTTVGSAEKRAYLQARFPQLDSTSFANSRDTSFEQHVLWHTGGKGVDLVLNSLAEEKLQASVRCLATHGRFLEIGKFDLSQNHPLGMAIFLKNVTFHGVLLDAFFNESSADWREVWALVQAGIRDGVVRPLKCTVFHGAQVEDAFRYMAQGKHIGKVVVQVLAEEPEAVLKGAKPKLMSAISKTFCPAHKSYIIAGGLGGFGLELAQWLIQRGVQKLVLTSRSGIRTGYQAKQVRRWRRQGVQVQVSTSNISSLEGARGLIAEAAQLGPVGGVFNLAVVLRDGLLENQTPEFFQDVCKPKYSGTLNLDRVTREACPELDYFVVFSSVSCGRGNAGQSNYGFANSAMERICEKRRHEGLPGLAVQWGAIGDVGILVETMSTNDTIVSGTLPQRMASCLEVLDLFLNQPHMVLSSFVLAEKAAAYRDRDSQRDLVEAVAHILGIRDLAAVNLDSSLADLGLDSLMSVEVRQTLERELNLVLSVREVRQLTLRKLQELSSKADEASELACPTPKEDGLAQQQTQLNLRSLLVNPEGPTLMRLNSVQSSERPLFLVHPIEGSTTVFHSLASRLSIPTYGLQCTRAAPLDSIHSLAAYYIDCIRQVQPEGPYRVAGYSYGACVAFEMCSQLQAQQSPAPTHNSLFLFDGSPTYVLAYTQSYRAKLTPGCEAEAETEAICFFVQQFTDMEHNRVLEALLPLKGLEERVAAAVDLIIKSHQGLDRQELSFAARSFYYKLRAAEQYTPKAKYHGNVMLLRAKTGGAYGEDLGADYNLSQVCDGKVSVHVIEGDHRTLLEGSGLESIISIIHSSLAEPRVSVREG
In words: Human FAS enzyme assay (decrease in NADPH fluorescence). The class given is biochemical. As to conditions: % inhibition at a concentration of 100 μmolar. Summed up:
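In-house human FAS was preincubated with compound and NADPH for 15 min at room temperature in 0.1 M Tris pH 7.5 with EDTA, glutathione and BSA. Malonyl CoA and acetyl CoA (500 μM and 150 μM in the added mix) were then added for 60 min. IC50 came from time-zero-subtracted NADPH fluorescence (340/460 nm).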
The inhibition is the drop in the measured response relative to a control, in per cent. In the case of `CCC(=O)N1CC[C@@H](NC(=O)Nc2cc(C(=O)N3CCC(c4ccc(C#N)cc4)CC3)ccc2C)C1` [Example 276, 3-[5-[4-(4-cyanophenyl)piperidine-1-carbonyl]-2-methyl-phenyl]-1-[(3R)-1-propanoylpyrrolidin-3-yl]urea], the inhibition at 100 µM worked out at 98.2%.

Regarding `COC(=O)CNC(=O)CNC(=O)Nc1cc(C(=O)N2CCC(c3ccc(C#N)cc3)CC2)ccc1C` [Example 237, Methyl 2-[[2-[[5-[4-(4-cyanophenyl)piperidine-1-carbonyl]-2-methyl-phenyl]carbamoylamino]acetyl]amino]acetate], the inhibition at 100 µM stood at 90.9%.

With `Cc1ccc(C(=O)N2CCC(c3ccc(C#N)cc3)CC2)cc1NC(=O)NCCCNS(=O)(=O)C(C)C` [Example 217, 1-[5-[4-(4-cyanophenyl)piperidine-1-carbonyl]-2-methyl-phenyl]-3-[3-(propan-2-ylsulfonylamino)propyl]urea], the inhibition at 100 µM is 87%.

As for `Cc1ccc(C(=O)N2CCC(c3ccc(C#N)cc3)CC2)cc1NC(=O)NCCNC(=O)OC(C)(C)C` [Example 102, tert-butyl N-[2-[[5-[4-(4-cyanophenyl)piperidine-1-carbonyl]-2-methyl-phenyl]carbamoylamino]ethyl]carbamate], the inhibition at 100 µM was determined as 91.9%.

For the molecule `Cc1ccc(C(=O)N2CCC(c3ccc(F)cc3)CC2)cc1NC(=O)NCCN(C)S(C)(=O)=O` [Example 351, 1-[5-[4-(4-fluorophenyl)piperidine-1-carbonyl]-2-methyl-phenyl]-3-[2-(methyl-methylsulfonyl-amino)ethyl]urea], the inhibition at 100 µM was 88.9%.

Consider `Cc1ccc(C(=O)N2CCC(c3ccc(C#N)cc3)CC2)cc1NC(=O)N1CCN(C(=O)N(C)C)CC1` [Example 332, N-[5-[4-(4-cyanophenyl)piperidine-1-carbonyl]-2-methyl-phenyl]-N′,N′-dimethyl-piperazine-1,4-dicarboxamide], for which the inhibition at 100 µM was found to be 96.5%.

Regarding `Cc1ccc(C(=O)N2CCC(c3ccc(C#N)cc3)CC2)cc1NC(=O)N[C@H]1CCCC[C@@H]1NS(C)(=O)=O` (relative stereo) [Example 315, 1-[5-[4-(4-cyanophenyl)piperidine-1-carbonyl]-2-methyl-phenyl]-3-[(trans)-2-methanesulfonamidocyclohexyl]urea], the inhibition at 100 µM came out at 104%.

On to `Cc1ccc(C(=O)N2CCC(c3ccc(C(F)(F)F)cc3)CC2)cc1NC(=O)NCCN(C)C` [Example 334, 3-(2-dimethylaminoethyl)-1-[2-methyl-5-[4-[4-(trifluoromethyl)phenyl]piperidine-1-carbonyl]phenyl]urea], for which the inhibition at 100 µM came to 92.6%.

In the case of `CNCCNC(=O)Nc1cc(C(=O)N2CCC(c3ccc(C#N)cc3)CC2)ccc1C` [Example 116, 1-[5-[4-(4-cyanophenyl)piperidine-1-carbonyl]-2-methyl-phenyl]-3-(2-methylaminoethyl)urea], the inhibition at 100 µM was 86.2%.

As to `CC(=O)N1CC(NC(=O)Nc2cc(C(=O)N3CCC(c4ccc(C#N)cc4)CC3)ccc2C)C1` [Example 310, 3-(1-acetylazetidin-3-yl)-1-[5-[4-(4-cyanophenyl)piperidine-1-carbonyl]-2-methyl-phenyl]urea], the inhibition at 100 µM amounted to 94.5%.

Consider `Cc1ccc(C(=O)N2CCC(c3ccc(C#N)cc3)CC2)cc1NC(=O)NCCCN1CCCCCC1=O` [Example 178, 1-[5-[4-(4-cyanophenyl)piperidine-1-carbonyl]-2-methyl-phenyl]-3-[3-(2-oxoazepan-1-yl)propyl]urea], for which the inhibition at 100 µM is 95.9%.

Take `Cc1ccc(C(=O)N2CCC(c3ccc(C#N)cc3)CC2)cc1NC(=O)NCc1cncn1C` [Example 150, 1-[5-[4-(4-cyanophenyl)piperidine-1-carbonyl]-2-methyl-phenyl]-3-[(3-methylimidazol-4-yl)methyl]urea]: the inhibition at 100 µM came out at 85%.

On to `CCN1CCC[C@H]1CNC(=O)Nc1cc(C(=O)N2CCC(c3ccc(C#N)cc3)CC2)ccc1C` [Example 149, 3-[5-[4-(4-cyanophenyl)piperidine-1-carbonyl]-2-methyl-phenyl]-1-[[(2S)-1-ethylpyrrolidin-2-yl]methyl]urea], for which the inhibition at 100 µM stood at 80.2%.

`Cc1ccc(C(=O)N2CCC(c3ccc(C#N)cc3)CC2)cc1NC(=O)NCC(N)=O` [Example 58, 2-[[5-[4-(4-cyanophenyl)piperidine-1-carbonyl]-2-methyl-phenyl]carbamoylamino]acetamide]: the inhibition at 100 µM worked out at 89.9%.

Turning to `Cc1ccc(C(=O)N2CCC(c3ccc(C#N)cc3)CC2)cc1NC(=O)NC1CCCCC1` [Example 228, 1-[5-[4-(4-cyanophenyl)piperidine-1-carbonyl]-2-methyl-phenyl]-3-cyclohexyl-urea], the inhibition at 100 µM was 82.1%.

`Cc1ccc(C(=O)N2CCC(c3ccc(C#N)cc3)CC2)cc1NC(=O)NCCN(C)C(=O)C(C)C` [Example 271, N-[2-[[5-[4-(4-cyanophenyl)piperidine-1-carbonyl]-2-methyl-phenyl]carbamoylamino]ethyl]-N, 2-dimethyl-propanamide]: the inhibition at 100 µM is 93.4%.

Consider `Cc1ccc(C(=O)N2CCC(c3ccc(C#N)cc3)CC2)cc1NC(=O)NC1Cc2cccnc2NC1=O` (racemic) [Example 239, (RS)-1-[5-[4-(4-cyanophenyl)piperidine-1-carbonyl]-2-methyl-phenyl]-3-(2-oxo-3,4-dihydro-1H-1,8-naphthyridin-3-yl)urea], for which the inhibition at 100 µM was 86.5%.

For the molecule `CCS(=O)(=O)NC(C)(C)CNC(=O)Nc1cc(C(=O)N2CCC(c3ccc(C#N)cc3)CC2)ccc1C` [Example 204, 3-[5-[4-(4-cyanophenyl)piperidine-1-carbonyl]-2-methyl-phenyl]-1-[2-(ethylsulfonylamino)-2-methyl-propyl]urea], the inhibition at 100 µM turned out to be 91%.

For the molecule `CC(=O)N1CC[C@H](NC(=O)Nc2cc(C(=O)N3CCC(c4ccc(C#N)cc4)CC3)ccc2C)C1` [Example 277, 3-[(3S)-1-acetylpyrrolidin-3-yl]-1-[5-[4-(4-cyanophenyl)piperidine-1-carbonyl]-2-methyl-phenyl]urea], the inhibition at 100 µM is 96.8%.

On to `Cc1ccc(C(=O)N2CCC(c3ccc(C#N)cc3)CC2)cc1NC(=O)NCCCN` [Example 207, 3-(3-aminopropyl)-1-[5-[4-(4-cyanophenyl)piperidine-1-carbonyl]-2-methyl-phenyl]urea], for which the inhibition at 100 µM worked out at 89.7%.

As for `Cc1cc(C)c(C(=O)N2CCC(c3ccc(C#N)cc3)CC2)cc1NC(=O)NCc1ccccn1` [Example 409, 1-[5-[4-(4-cyanophenyl)piperidine-1-carbonyl]-2,4-dimethylphenyl]-3-(pyridin-2-ylmethyl)urea], the inhibition at 100 µM was found to be 96.9%.

On to `Cc1ccc(C(=O)N2CCC(c3ccc(C#N)cc3)CC2)cc1NC(=O)NCC(O)C(F)(F)F` (racemic) [Example 195, (RS)-1-[5-[4-(4-cyanophenyl)piperidine-1-carbonyl]-2-methyl-phenyl]-3-(3,3,3-trifluoro-2-hydroxy-propyl)urea], for which the inhibition at 100 µM was 88.6%.

The assay is the same for the next values; noted with them: FAS enzyme assay, IC50 from fitted sigmoid curves.
With `Cc1ccc(C(=O)N2CCC(c3ccc(C#N)cc3)CC2)cc1NC(=O)N(C)CCNC(=O)C(C)C` [N-[2-[[5-[4-(4-cyanophenyl)piperidine-1-carbonyl]-2-methylphenyl]carbamoyl-methylamino]ethyl]-2-methylpropanamide], the “IC50, inhibition of human Fatty Acid Synthase” value was “do not have IC50s in the range of about 0.001 μM to about 30 μM”.
